Experimental data taken from patent US20210177824A1, “EXTENDED RELEASE FORMULATIONS FOR INTRA-ARTICULAR APPLICATIONS” (NOVARTIS AG, priority 2017, published 2021).

Assays:
Type in all cases: physicochemical
pKa of Compound A = details: weakly basic
Text: (§1) Compound A can be formulated as immediate release formulations for intra-articular injection. However, due to a high fluid exchange between the synovial fluid and the blood stream, immediate release formulations have a short synovial residence half-life and require frequent injections.

[1] = Aqueous solubility of Compound A as a function of pH
Text: as §1

[2] = Particle size and surface area of micronized Compound A micro-crystals
Text: Compound A can be micronized using any methods known to those skilled in the art. Un-milled Compound A is subjected to a size reduction process to obtain particle size. The size reduction of Compound A can be performed using any known methods such as by jet-milling technology, and more particularly, by spiral jet-milling technology, fluidized bed opposed jet-milling technology or loop jet-milling technology.
In yet other embodiments, Compound A was micronized to form micro-crystals with maximal particle diameters characterized in Table 1.

pKa (pKa of Compound A): 5.2 | pH dependence of solubility [1]: Solubility increases with decreasing pH | Solubility in neutral pH and basic pH aqueous solutions ([1]; neutral and basic pH): poorly soluble | Particle size: D10 [2]: ≤1.4 μm | Particle size: D50 [2]: ≤6.1 μm | Particle size: D90 [2]: ≤29.7 μm | Surface area [2]: 3 m^2/g
SMILES: O=C(Nc1ccc(Cl)c(Cl)c1)[C@@H]1[C@@H](c2ccncc2)[C@@H]2CC[C@H]1O2 [Compound A, N-(3,4-dichlorophenyl)-3-(pyridin-4-yl)-7-oxabicyclo[2.2.1] heptane-2-carboxamide]
